Experimental data from ChEMBL document CHEMBL5126512, “Current status of carbazole hybrids as anticancer agents” (Eur J Med Chem, 2022).
One block for each compound: values may come before it.

Assays:
[1] = Anticancer activity against human CLS-354 cells assessed as cell growth inhibition measured after 24 hrs by MTT assay; type: functional, cell-based; details: CLS-354, 24 h
[2] = Anticancer activity against cisplatin/camptothecin resistant human CLS-354 cells assessed as cell growth inhibition measured after 24 hrs by MTT assay; type: functional, cell-based; details: CLS-354, 24 h
[3] = Potency index, ratio of cisplatin IC50 to compound IC50 for anticancer activity against cisplatin/camptothecin resistant human CLS-354 cells by MTT assay; type: functional
A549 = test: Antiproliferative activity against human A549 cells assessed as cell growth inhibition measured after 48 hrs by MTT assay; type: functional, cell-based; details: A549, 48 h
MCF7 = test: Antiproliferative activity against human MCF7 cells assessed as cell growth inhibition measured after 48 hrs by MTT assay; type: functional, cell-based; details: MCF7, 48 h
AGS = test: Antiproliferative activity against human AGS cells assessed as cell growth inhibition measured after 72 hrs by MTT assay; type: functional, cell-based
SGC-7901 = test: Antiproliferative activity against human SGC-7901 cells assessed as cell growth inhibition measured after 72 hrs by MTT assay; type: functional, cell-based; details: SGC-7901, 72 h

Compound: CC(C)=CCC[C@@]1(C)C=Cc2c(ccc3c2[nH]c2cc(O)c(C)cc23)O1
IC50 [1]: 14.4 µM
IC50 [2]: 16 µM
Ratio IC50 [3]: 2.1

IC50 (A549): 5.04 µM
IC50 (MCF7): 5.48 µM
Compound: Cn1c2ccccc2c2cc(C3NCCc4c3[nH]c3ccccc43)ccc21 (configuration not stated)

IC50 (AGS): 0.4 µM
IC50 (SGC-7901): 1.5 µM
Compound: N=C(N)N/N=C/c1ccc2c(c1)c1ccccc1n2Cc1ccccc1F
